Laboratory results from patent publication US20250025484A1, “POLYMERSOME NANOPARTICLES EXHAUSTING INTRACELLUAR AMINO ACID FOR CANCER THERAPY AND METHODS THEREOF” (THE UNIVERSITY OF HONG KONG, priority 2023, published 2025).

What was measured:
Type in all cases: cell-based, human
[1] = system: A549 cells; assay: mCherry-GFP-LC3 reporter and BSA-AF647 internalization (CLSM); conditions: EBSS plus BTZ, 4 h, vs starved cells
Experimental: For in vitro fluorescent imaging detection, the cells were seeded on Nunc glass bottom confocal dishes (Thermo Fischer Scientific, USA) for 24 h. Unless explained, the cells were incubated with FITC-BSA (0.2 mg/mL), BSA-AF647 (0.05 mg/mL), or DQ-BSA (10 μg/mL) for 4 h for protein internalization and extracellular protein degradation analysis, respectively. TMR-Dextran (0.125 mg/mL) was applied for 1 h as a macropinocytosis marker. Subsequently, after washed with PBS three times, the cells were fixed in 3.7% paraformaldehyde solution in PBS for 10 min, followed by washing with PBS three times and staining with DAPI according to the protocol (Thermo Fischer Scientific, D1306). After washing with PBS three times, the cells were mounted with SlowFade Diamond Antifade Mountant (Thermo Fischer Scientific, S36963). The in vivo TUNEL assay was conducted using the one-step TUNEL assay kit (C1088, Beyotime, China). The Zeiss LSM 900 inverted confocal microscope equipped with 10×0.45 NA, 20×0.8 NA and 40×1.4 NA lens was employed to analyze intracellular fluorescent signals. The same exposure settings were used across all conditions in each individual experiment. […]

[2] = system: K48-polyubiquitinated proteins in A549 cells; assay: Western blot of K48-polyubiquitinated proteins; conditions: EBSS plus BTZ (10 μM), 2 h or 24 h
Experimental: The cells were plated in 12-well plates at 1×10^5 density and incubated for 24 h. […] Total protein concentration was determined by pierce BCA protein assay kit (Thermo Fischer Scientific, #23225). Equal amounts of proteins were loaded. SDS-PAGE electrophoresis was utilized to separate proteins, which were subsequently transferred to a nitrocellulose membrane through the wet transfer system. The membranes were blocked with 5% BSA in TBST at room temperature for 1 h and incubated with indicated primary antibodies overnight under 4° C. After washed with TBST, the blots were incubated with secondary antibodies for 1 h at room temperature. After washed with TBST three times, the proteins blots were visualized by Clarity Western ECL Substrate (BioRad) and captured by ChemiDoc Imaging System (BioRad). The following antibodies were used: K48-polyubiquitinated proteins (Cell signaling technology, #8081), p-S6K (Cell signaling technology, #9234), S6K (Cell signaling technology, #2708), mTOR (Cell signaling technology, #2983), β-Actin (Cell signaling technology, #4967), SQSTM1 (Abcam, ab91526), HRP-conjugated secondary antibody (Abcam, ab6789), HRP-conjugated secondary antibody (Abcam, ab6721).

[3] = system: proteasome; assay: Proteasome activity probe (Me4BodipyFL-Ahx3Leu3VS) flow cytometry; conditions: A549 cells, EBSS plus BTZ (10 μM), 4 h, vs EBSS
Experimental: The cells were seeded in 12-well plates at 1×10^5 density. Unless explained, the cells were incubated with FITC-BSA (0.2 mg/mL), DQ-BSA (10 μg/mL), or Me4BodipyFL-Ahx3Leu3VS (1 μM) for 4 h for protein internalization, extracellular protein degradation, and proteasome activity analysis, respectively. TMR-Dextran (0.125 mg/mL) was applied for 1 h as a macropinocytosis marker. After washing with PBS three times, the cells were harvested and analyzed by Agilent NovoCyte Quanteon analyzer.

[4] = system: A549 cells; assay: DQ-BSA internalization and degradation analysis
Experimental: For in vitro fluorescent imaging detection, the cells were seeded on Nunc glass bottom confocal dishes (Thermo Fischer Scientific, USA) for 24 h. […] TMR-Dextran (0.125 mg/mL) was applied for 1 h as a macropinocytosis marker. Subsequently, after washed with PBS three times, the cells were fixed in 3.7% paraformaldehyde solution in PBS for 10 min, followed by washing with PBS three times and staining with DAPI according to the protocol (Thermo Fischer Scientific, D1306). After washing with PBS three times, the cells were mounted with SlowFade Diamond Antifade Mountant (Thermo Fischer Scientific, S36963). The in vivo TUNEL assay was conducted using the one-step TUNEL assay kit ([…], Beyotime, China). The Zeiss LSM 900 inverted confocal microscope equipped with 10×0.45 NA, 20×0.8 NA and 40×1.4 NA lens was employed to analyze intracellular fluorescent signals. The same exposure settings were used across all conditions in each individual experiment. The cells were seeded in 12-well plates at 1×10^5 density. Unless explained, the cells were incubated with FITC-BSA (0.2 mg/mL), DQ-BSA (10 μg/mL), or Me4BodipyFL-Ahx3Leu3VS (1 μM) for 4 h for protein internalization, extracellular protein degradation, and proteasome activity analysis, respectively. […] After washing with PBS three times, the cells were harvested and analyzed by Agilent NovoCyte Quanteon analyzer.

[5] = system: SQSTM1; assay: Western blot of SQSTM1; conditions: A549 cells, EBSS plus BSA medium, 4 h
Experimental: The cells were plated in 12-well plates at 1×10^5 density and incubated for 24 h. Subsequently, the cells received indicated treatments for 4 h and the cells were washed with 1×PBS three times and harvested with RIPA buffer (supplemented with Halt protease and phosphatase inhibitor cocktail, Thermo Fischer Scientific, USA). Total protein concentration was determined by pierce BCA protein assay kit (Thermo Fischer Scientific, #23225). Equal amounts of proteins were loaded. SDS-PAGE electrophoresis was utilized to separate proteins, which were subsequently transferred to a nitrocellulose membrane through the wet transfer system. The membranes were blocked with 5% BSA in TBST at room temperature for 1 h and incubated with indicated primary antibodies overnight under 4° C. After washed with TBST, the blots were incubated with secondary antibodies for 1 h at room temperature. After washed with TBST three times, the proteins blots were visualized by Clarity Western ECL Substrate (BioRad) and captured by ChemiDoc Imaging System (BioRad). […]

[6] = system: A549 cells; assay: FITC-BSA protein internalization
Experimental: (§1) For in vitro fluorescent imaging detection, the cells were seeded on Nunc glass bottom confocal dishes (Thermo Fischer Scientific, USA) for 24 h. Unless explained, the cells were incubated with FITC-BSA (0.2 mg/mL), BSA-AF647 (0.05 mg/mL), or DQ-BSA (10 μg/mL) for 4 h for protein internalization and extracellular protein degradation analysis, respectively. TMR-Dextran (0.125 mg/mL) was applied for 1 h as a macropinocytosis marker. Subsequently, after washed with PBS three times, the cells were fixed in 3.7% paraformaldehyde solution in PBS for 10 min, followed by washing with PBS three times and staining with DAPI according to the protocol (Thermo Fischer Scientific, D1306). After washing with PBS three times, the cells were mounted with SlowFade Diamond Antifade Mountant (Thermo Fischer Scientific, S36963). The in vivo TUNEL assay was conducted using the one-step TUNEL assay kit (C1088, Beyotime, China). The Zeiss LSM 900 inverted confocal microscope equipped with 10×0.45 NA, 20×0.8 NA and 40×1.4 NA lens was employed to analyze intracellular fluorescent signals. The same exposure settings were used across all conditions in each individual experiment.
(§2) The cells were seeded in 12-well plates at 1×10^5 density. […] After washing with PBS three times, the cells were harvested and analyzed by Agilent NovoCyte Quanteon analyzer.

[7] = system: A549 cells; assay: Cytotoxicity assay (MTT); conditions: BTZ (20 μM), EBSS vs DMEM, 24 h
Experimental: The cells were seeded in 96-well plates and cultured for 24 h. To investigate the influence of starvation on BTZ treatment, the cells were incubated with BTZ (20 μM) or DMSO, in complete DMEM or EBSS medium for 24 h. To investigate the combination effect of EIPA and BTZ, the cells were treated with a series of concentration of EIPA and BTZ in EBSS (plus 3% BSA) medium for 24 h. 10 μL of MTT (5 mg/mL) were added into each well and incubated for 2-4 h. Then the supernatant was changed with 100 μL DMSO to dissolve the precipitate. Subsequently, the absorbance of the solution at 570 nm and 630 nm was measured by a microplate reader (SpectraMax M4, Molecular Devices LLC, San Jose, CA). The cell viability was calculated by OD570-OD630 and normalized to DMSO control group.

[8] = system: A549 cells; assay: TMR-Dextran internalization (macropinocytosis marker); conditions: EBSS plus EIPA (50 μM, pretreated 1 h before)
Experimental: as §1, §2

| SMILES | LC3 puncta (autophagy flux) [1] | percentage of BSA-AF647 colocalized with LC3 puncta [1] | level of K48-polyubiquitinated proteins [2] | fluorescence intensity of proteasome probe (proteasome activity) [3] | fluorescence intensity of DQ-BSA (internalized protein degradation) ([4]; A549 cells, EBSS plus BTZ (10 μM), 4 h, vs EBSS) | SQSTM1 expression level [5] | FITC-BSA protein internalization ([6]; EBSS plus BTZ, 4 h) | cell viability [7] | TMR-Dextran internalization (macropinocytosis) [8] | fluorescence intensity of DQ-BSA (intracellular protein degradation) ([4]; A549 cells pre-incubated with DQ-BSA 1 h, then EBSS with 3% BSA plus EIPA 3 h, vs starvation group) | starvation-amplified FITC-BSA uptake ([6]; EBSS plus EIPA (50 μM, pretreated 1 h before), 1 h) |
| --- | --- | --- | --- | --- | --- | --- | --- | --- | --- | --- | --- |
| CC(C)C[C@H](NC(=O)[C@H](Cc1ccccc1)NC(=O)c1cnccn1)B(O)O [BTZ, bortezomib] | further enhanced | increased the percentage of BSA-AF647 colocalized with LC3 puncta | profound accumulation of polyubiquitinated proteins | remarkably reversed | substantially decreased | exacerbated starvation-induced SQSTM1 decrease | further increased protein internalization | much more significant decrease of cell viability in starved cancer cells |  |  |  |
| CCN(c1nc(N)c(C(=O)N=C(N)N)nc1Cl)C(C)C [EIPA, 5-(n-ethyl-n-isopropyl)-amiloride] |  |  |  |  |  |  |  |  | inhibited | further increased the fluorescence intensity of DQ-BSA | notably blocked |
